According to patent US7015251B1 (priority 1999, dated 2006):
In brackets after ≈: the same amount, converted by molar mass. Entries after “also recorded” stand apart in the source; their conditions may differ.

Key:
[1] = system: Jurkat cells; experiment: Jurkat cell proliferation assay (3H-thymidine uptake); type: cell-based, human
Protocol: Cell Proliferation Assays. […] DNA synthesis was assessed by the addition of ^3H-thymidine (1 μCi/well; specific activity—6.7 Ci/mmol; ICN Pharmaceuticals, Costa Mesa, Calif.) uptake 24 hours before the end of the 72 hour growth period at a final concentration of 1 μCi/well.

[2] = system: Jurkat cells; experiment: Jurkat cell cycle analysis (propidium iodide, FACScan); type: cell-based, human; details: 24 hours
Description: Cell Cycle Analysis. […] Pie graphs (FIGS. 3A–F) were generated and normalized to a control value of 100%.

[3] = system: Jurkat cells; experiment: Jurkat histologic evaluation (Wright's stain); type: cell-based, human; details: 0.6 and 6.0 ng/ml of paclitaxel alone, 48 hours
Protocol: Histologic Evaluation. […] Wright's stains of all slides were performed using an automated Hemastainer (Geometric Data, Wayne, Pa.). Slides were analyzed microscopically, photographed (Olympus BH 2, Tokyo, Japan) at 100, 200, and 400 power, and evaluated for morphological changes.

[4] = system: Jurkat cells; experiment: Jurkat TUNEL assay for apoptosis; type: cell-based, human; details: 0.6 ng/ml of paclitaxel, 48 hours
Protocol: Terminal deoxynucleotide transferase (TdT) mediated deoxyuridine triphosphate (dUTP) nick-end labeling (TUNEL) assay. […] At 24 and 48 hours, DNA strand breaks were labeled with TUNEL assay (In Situ Cell Death Detection Kit, Fluorescein; Boehringer Mannheim, Indianapolis, Ind.), and cellular apoptosis was measured by flow cytometry.

[5] = system: Tu138 cells; experiment: Tu138 MTT dye assay (cytotoxicity, isobologram); details: paclitaxel alone, n=6, 3 days
Protocol: Tu138, an adherent squamous carcinoma cell line of the head and neck was established at U T M D Anderson Cancer Center, Houston, Tex. (20, 21) and was generously provided by Dr. Gary Clayman's laboratory. Tu138 cells were maintained routinely in T-75 culture flasks (Falcon, Inc., NJ) at a plating cell density of 0.1×10^6 per 75 sq. cm. surface area in complete D-MEM/F-12 culture medium (10 ml) containing 10% fetal bovine serum (FBS, Atlanta Biologicals, Ga.), 2 mM glutamine (Gibco, NY), 50 units/mL penicillin, […] streptomycin (Gibco, NY) and 20 mM Hepes (Sigma, MO) in a 5% CO2 atmosphere at 37° C. Tu138 cells were replenished with fresh complete culture medium twice weekly until confluence.
At the indicated times (24 to 72 hours), cells were subjected to (a) tetrazolium-based dye assay for cell survival measurements, (b) flow cytometry analysis for cell cycle progression and (c) measurements of apoptosis by TUNEL assay.
(22). At the end of an incubation period of 4 hours, culture plates were centrifuged at 300 g for 2 minutes.

[6] = system: Tu138 cells; experiment: Tu138 cell cycle measurements (flow cytometry); type: cell-based, human; details: paclitaxel 600 ng/ml
Protocol: (§1) At the end of either 24 or 48 hours, cells were trypsinized and washed with the culture medium. For cell cycle measurements, cells were mixed with 0.5 ml of 0.1% propidium iodide solution (New Concepts Scientific Ltd. ON) containing 0.1% sodium citrate and 0.1% NP-40. RNase (1 μg) was added to each sample and cells were incubated at 4° C. for 30 minutes. At least 1×10^4 cells were acquired on a precalibrated FACScan (Beckton Dickinson, Calif.) flow cytometer. For precalibration “DNA QC” (Becton Dickinson, Calif.) kit was utilized. The acquired cells were then subjected to cell cycle analysis by the use of “Modfit LT” software (Beckton Dickinson, Calif.). For measurements of apoptosis, In Situ Cell Death Detection Kit (Boehringer Manheim, Ind.) followed by flow cytometry analysis was utilized.

[7] = system: Tu138 cells; experiment: Tu138 TUNEL assay for apoptosis; type: cell-based, human; details: paclitaxel 600 ng/ml alone
Protocol: as §1

[8] = system: Tu138 cells; details: paclitaxel 120 μg and/or ceramide 500 μg in cremophore
Description: The vehicle control consisted of cremophore only at the concentration utilized in the combination treatment.
In a separate experiment nude mice were implanted with 1−2×10^6 Tu138 cells. […] The vehicle control consisted of cremophore only at the concentration utilized in the combination treatment.

[9] = system: HT29; experiment: MTT dye assay at 72 hrs, HT29; type: cell-based, human; details: Homo sapiens, HT-29; read-out: % Growth Inhibition
[10] = system: Jurkat; experiment: MTT dye assay at 72 hrs, Jurkat; type: cell-based, human; details: Homo sapiens, read-out: % Growth Inhibition
[11] = system: LnCap; experiment: MTT dye assay at 72 hrs, LnCap; type: cell-based, human; details: Homo sapiens, LNCaP; read-out: % Growth Inhibition
[12] = system: PC-3; experiment: MTT dye assay at 72 hrs, PC-3; type: cell-based, human; details: Homo sapiens, read-out: % Growth Inhibition
[13] = system: RWP-2; experiment: MTT dye assay at 72 hrs, RWP-2; type: cell-based, human; details: Homo sapiens; read-out: % Growth Inhibition
[14] = system: TU138; experiment: MTT dye assay at 72 hrs, TU138; type: cell-based, human; details: Homo sapiens; read-out: % Growth Inhibition
[15] = system: tumor cell lines; experiment: MTT dye assay at 72 hrs, tumor cell lines tested (ID50); type: cell-based, human; details: paclitaxel, most tumor cell lines tested
[16] = system: MCF-7; experiment: MCF-7 cell cycle progression; type: cell-based, human
[17] = system: recurrent breast cancer; details: single agent, cited from earlier work
[18] = system: Tu138 tumor; experiment: Tu138 tumor in nude mice, intraperitoneal treatment; details: paclitaxel 120 μg and/or ceramide 500 μg, within 4 weeks of administration
[19] = system: Tu138 cell-tumor; experiment: Tu138 tumor in nude mice, subcutaneous treatment near tumor site; details: paclitaxel alone 120 μg/0.1 mL s.c. thrice weekly
Protocol: To corroborate in vitro findings Tu138 cells were planted subcutaneously on nude mice. […] Tumor size was measured once a week. All groups of mice were sacrificed on day 45 and excised tumors were weighed.

[20] = n=25, 250 mg/m^2, 24 hour infusion every 21 day interval

## CC(=O)O[C@H]1C(=O)[C@@]2(C)[C@H]([C@H](OC(=O)c3ccccc3)[C@]3(O)C[C@H](OC(=O)[C@H](O)[C@@H](NC(=O)c4ccccc4)c4ccccc4)C(C)=C1C3(C)C)[C@]1(OC(C)=O)CO[C@@H]1C[C@@H]2O [Paclitaxel]
[1]; 10% fetal bovine serum
  concentrations that effectively blocked thymidine incorporation: higher than 0.06 ng/ml
[1]; Homo sapiens, Jurkat, read-out: growth inhibition
  inhibition at 0.0006 µg/mL: 56.5%
[1]; Taxol 0.6 ng/ml, Experiment 1
  [3H]thymidine uptake counts ± SD: 52675 ± 7478 cpm
[1]; Taxol 0.6 ng/ml, Experiment 2
  [3H]thymidine uptake counts ± SD: 95563 ± 6427 cpm
[1]; Taxol 0.6 ng/ml, Experiment 3
  [3H]thymidine uptake counts ± SD: 22771 ± 5113 cpm
[1]; Taxol 0.6 ng/ml, Experiment 4
  [3H]thymidine uptake counts ± SD: 89621 ± 17579 cpm
[1]; Taxol 0.6 ng/ml, Experiment 5
  [3H]thymidine uptake counts ± SD: 98694 ± 32045 cpm
[1]; Taxol 6.0 ng/ml, Experiment 1
  [3H]thymidine uptake counts ± SD: 16592 ± 782 cpm
[1]; Taxol 6.0 ng/ml, Experiment 2
  [3H]thymidine uptake counts ± SD: 33443 ± 17976 cpm
[1]; Taxol 6.0 ng/ml, Experiment 3
  [3H]thymidine uptake counts ± SD: 13400 ± 849 cpm
[1]; Taxol 6.0 ng/ml, Experiment 4
  [3H]thymidine uptake counts ± SD: 35466 ± 7576 cpm
[1]; Taxol 6.0 ng/ml, Experiment 5
  [3H]thymidine uptake counts ± SD: 10295 ± 353 cpm
[1]; paclitaxel alone, n=5, 3-day exposure assay
  ED50 (cell growth inhibition): approximately 0.5 ng/ml
[1]; paclitaxel alone, serum 10% to 1%
  effect of serum level on growth inhibition: unaffected by variation of serum levels
[2]; 0.6 and 6.0 ng/ml paclitaxel each
  hypodiploid (sub-G1) cell population: approximately 25%
[2]; paclitaxel 0.6 ng/ml alone
  cell population in S phase: 31.8%
  decrease of cells in the G0–G1 phase: 13.3%
  total cell population in the G2-M phase: 22.2%
[2]; paclitaxel 6.0 ng/ml alone
  cell population in S phase: 27%
  decrease of cells in the G0–G1 phase: 23.5%
  total cell population in the G2-M phase: 38.2%
[2]; paclitaxel 0.6 or 6.0 ng/ml alone
  increase in the G2-M cell population vs untreated control: 2–3 fold
[3]
  morphological changes (Wright's stain): apoptotic bodies were noted amid cell shrinkage and nuclear and membrane blebbing
[4]
  apoptosis (TUNEL): 19.6%
[5]
  ED50 (cytotoxicity, MTT): 1.92 ± 1.2 µg/mL (≈ 2.25 µM)
[6]; 24 hours
  cells blocked in the G2-M phase: 61.8%
[6]; 48 hours
  cells blocked in the G2-M phase: 58.2%
[7]; 24 hours
  apoptosis (TUNEL): 18.4%
[7]; 48 hours
  apoptosis (TUNEL): 54.8%
[8]; s.c. near tumor thrice weekly from day 4 for 5 weeks
  Tumor Size (mm^2) at Week 5: 176.0 ± 90.3 mm^2
[8]; s.c., week 5 (Table 3)
  reduction in tumor growth / tumor size vs vehicle control: 11.1%
[9]
  inhibition at 0.6 µg/mL: 16%
[10]
  inhibition at 0.6 µg/mL: 55%
[11]
  inhibition at 0.6 µg/mL: 13%
[12]
  inhibition at 0.6 µg/mL: 16%
[13]
  inhibition at 0.6 µg/mL: 2%
[14]
  inhibition at 0.6 µg/mL: 10%
[15]
  ID50 (cytotoxicity): 0.006 to 0.06 µg/mL
[16]; higher than ID50 paclitaxel concentrations
  number of cells in G2/M phase: 38%
[16]; lower than ID50 paclitaxel concentrations (0.6–6.0 ng/ml)
  cells blocked in G2/M phase of the cell cycle: greater than 55%
[17]; 250 mg/m^2
  dose related toxicity: severe
[17]; [20]
  complete response rate: 12%
  partial response rate: 44%
[18]
  tumor size / tumor burden reduction in comparison to control (vehicle): 29%
[19]
  tumor growth compared with control: grew aggressively in control and paclitaxel treated mice almost equally; also recorded: equivalent growth
